# Experimental data: US7652143B2, “Cyclic ureas used as inhibitors of metalloproteases” (sanofi-aventis Deutschland GmbH, priority 2004, dated 2010)
# Structures can show the parent of a compound that is named as a salt. Where two headings read alike, the source gives them in different places.
# Key:
# human ADAMTS-4 protease = target: T1, human ADAMTS-4 protease (Homo sapiens, UniProt O75173); assay: Inhibition of ADAMTS-4 activity (rAgg1mut substrate, neo-epitope ELISA); type: biochemical; conditions: recombinant human ADAMTS-4, rAgg1mut substrate
# T1 sequence (O75173 213-837): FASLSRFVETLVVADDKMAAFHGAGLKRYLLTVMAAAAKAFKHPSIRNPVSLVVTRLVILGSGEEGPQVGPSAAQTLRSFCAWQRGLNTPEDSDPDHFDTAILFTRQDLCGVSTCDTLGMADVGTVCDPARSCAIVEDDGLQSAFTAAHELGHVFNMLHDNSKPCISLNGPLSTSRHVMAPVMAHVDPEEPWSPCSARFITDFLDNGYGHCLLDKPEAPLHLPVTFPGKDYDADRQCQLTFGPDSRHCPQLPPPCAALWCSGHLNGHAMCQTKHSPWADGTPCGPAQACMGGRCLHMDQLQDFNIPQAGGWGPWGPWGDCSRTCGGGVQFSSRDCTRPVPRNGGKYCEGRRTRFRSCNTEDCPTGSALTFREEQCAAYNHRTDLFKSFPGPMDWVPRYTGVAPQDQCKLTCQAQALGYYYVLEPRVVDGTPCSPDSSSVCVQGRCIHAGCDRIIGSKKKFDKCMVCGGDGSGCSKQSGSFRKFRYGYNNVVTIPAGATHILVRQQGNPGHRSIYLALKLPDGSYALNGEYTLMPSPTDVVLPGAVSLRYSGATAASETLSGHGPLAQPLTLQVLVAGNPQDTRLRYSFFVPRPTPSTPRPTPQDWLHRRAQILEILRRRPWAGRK
# [1] = tested on: primary bovine chondrocytes; assay: Inhibition of proteoglycan liberation from IL1α-stimulated primary bovine chondrocyte cultures; type: cell-based; conditions: Bos taurus, alginate culture, 5 ng/ml human IL1α, 16 hours, dimethylmethylene blue dye test
# Protocol: The proteoglycan degradation was determined using primary bovine chondrocytes which were isolated from the cartilage of the metacarpophalangeal joint of cattle about 6 months old and cultured in an alginate matrix at 37° C. and 5% CO2 for 3 weeks. Stimulation of ˜160 000 cells with 5 ng/ml human IL1α was followed after 16 hours by determination of the liberated amount of proteoglycan by means of a commercially available dimethylmethylene blue dye test system (Biocolor Ltd.).
# MMP13 = target: T2, MMP13 (Homo sapiens, UniProt P45452); assay: Inhibition of MMP 13 activity (fluorimetric peptide substrate cleavage); type: biochemical; conditions: recombinant enzyme, APMA activation, pH 7.5 or pH 6.5, fluorimeter
# T2 construct: purchased Biotrend, Roche, Boehringer Mannheim
# [2] = target: T3, TNFα-converting enzyme (TACE) (Homo sapiens, UniProt P78536); assay: Inhibition of TACE activity (fluorimetric peptide substrate cleavage); type: biochemical
# T3 construct: purchased R&D Systems
# Protocol: The activity of the cyclic urea derivatives of the invention was tested in various in vitro assay systems for inhibitory activity on the proteases ADAMTS-4 and TNFα-converting enzyme (TACE) and on matrix-degrading metalloproteases (MMP13).
# The activity in relation to TACE was measured using a commercially available, recombinantly prepared TACE protease (R&D Systems) and the substrate MCA-ProLeuAlaGlnAlaVal-Dpa-ArgSerSerSerArg-NH2 (Bachem).
# [3] = recombinant TACE (R&D Systems), MCA peptide substrate, fluorimeter, read-out: Inhibition of TACE activity (IC50)
# T3 sequence (P78536 215-824): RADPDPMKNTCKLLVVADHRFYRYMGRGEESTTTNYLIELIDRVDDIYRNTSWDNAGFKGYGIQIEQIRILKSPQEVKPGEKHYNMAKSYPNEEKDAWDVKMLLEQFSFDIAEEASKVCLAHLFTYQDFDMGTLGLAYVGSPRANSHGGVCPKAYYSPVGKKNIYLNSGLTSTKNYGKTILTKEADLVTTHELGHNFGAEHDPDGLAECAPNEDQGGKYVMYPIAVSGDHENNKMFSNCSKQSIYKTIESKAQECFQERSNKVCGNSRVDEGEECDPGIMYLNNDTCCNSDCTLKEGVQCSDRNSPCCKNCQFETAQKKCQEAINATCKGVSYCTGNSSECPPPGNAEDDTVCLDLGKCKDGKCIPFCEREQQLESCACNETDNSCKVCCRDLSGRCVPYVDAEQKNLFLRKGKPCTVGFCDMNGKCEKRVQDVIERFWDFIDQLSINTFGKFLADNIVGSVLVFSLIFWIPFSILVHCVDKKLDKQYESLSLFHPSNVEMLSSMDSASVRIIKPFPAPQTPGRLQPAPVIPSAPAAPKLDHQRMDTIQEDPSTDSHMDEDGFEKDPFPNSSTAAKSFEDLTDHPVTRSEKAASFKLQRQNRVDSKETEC
Compound,IC50 (human ADAMTS-4 protease) [µM],IC50 [1] [µM],IC50 (MMP13) [µM],"IC50 [2, 3] [µM]",IC50 [2] [µM]
2-(3-Biphenyl-4-ylmethyl-2-oxoimidazolidin-1-yl)-N-hydroxy-3-methylbutyramide [Example 6],9.06,–,–,–,–
"CC(C)C(C(=O)NO)N1CCN(Cc2ccc(OCc3ccccc3)cc2)C1=O (stereo not drawn) [Example 1, 2-(3-(4-Benzyloxybenzyl)-2-oxoimidazolidin-1-yl)-N-hydroxy-3-methylbutyramide]",2.1,> 50,5,2.47,–
"CC(C)C(C(=O)NO)N1CCN(c2ccc(OCc3ccccc3)cc2)C1=O (stereo not drawn) [Example 2, 2-(3-(4-Benzyloxyphenyl)-2-oxoimidazolidin-1-yl)-N-hydroxy-3-methylbutyramide]",55,–,–,–,–
"CC(C)C(C(=O)NO)N1CCN(Cc2cccc(OCc3ccccc3)c2)C1=O (stereo not drawn) [Example 3, 2-(3-(3-Benzyloxybenzyl)-2-oxoimidazolidin-1-yl)-N-hydroxy-3-methylbutyramide]",–,–,–,2,–
"CC(C)C(C(=O)NO)N1CCN(Cc2ccc(Oc3ccccc3)cc2)C1=O (stereo not drawn) [Example 4, N-Hydroxy-3-methyl-2-(2-oxo-3-(4-phenoxybenzyl)imidazolidin-1-yl)-butyramide]",1.33,–,0.08,5,–
"CC(C)C(C(=O)NO)N1CCN(Cc2ccc(OCc3ccccc3)nc2)C1=O (stereo not drawn) [Example 5, 2-(3-(6-Benzyloxypyridin-3-ylmethyl)-2-oxoimidazolidin-1-yl)-N-hydroxy-3-methylbutyramide]",10,–,–,–,–
"COc1ccc(C2CN(Cc3ccccc3)C(=O)N2C(C(=O)NO)C(C)C)cc1 (stereo not drawn) [Example 7, 2-(3-Benzyl-5-(4-methoxyphenyl)-2-oxoimidazolidin-1-yl)-N-hydroxy-3-methylbutyramide]",–,–,0.01,–,9
"CC(C)C(C(=O)NO)N1CCN(Cc2cccc(O)c2)C1=O (stereo not drawn) [Example 9, N-Hydroxy-2-(3-(3-hydroxybenzyl)-2-oxoimidazolidin-1-yl)-3-methylbutyramide]",72.4,–,–,3.04,–
"CC(C)C(C(=O)NO)N1CCN(Cc2ccc(OCc3ccncc3)cc2)C1=O (stereo not drawn) [Example 10, N-Hydroxy-3-methyl-2-{2-oxo-3-(4-(pyridin-4-ylmethoxy)benzyl)imidazolidin-1-yl}-butyramide; compound with TFA]",0.9,> 50,4,–,1.14
"CC(C)C(C(=O)NO)N1CCN(Cc2ccc(OCc3cccnc3)cc2)C1=O (stereo not drawn) [Example 11, N-Hydroxy-3-methyl-2-[2-oxo-3-(4-(pyridin-3-ylmethoxy)benzyl)imidazolidin-1-yl]-butyramide with TFA]",7.8,–,5.4,3,–
"CC(C)C(C(=O)NO)N1CCN(Cc2ccc(OCc3ccccn3)cc2)C1=O (stereo not drawn) [Example 12, N-Hydroxy-3-methyl-2-{2-oxo-3-(4-(pyridin-2-ylmethoxy)benzyl)imidazolidin-1-yl}butyramide with TFA]",7,–,–,8,–
"CC#CCOc1ccc(CN2CCN(C(C(=O)NO)C(C)C)C2=O)cc1 (stereo not drawn) [Example 13, 2-(3-(4-But-2-ynyloxybenzyl)-2-oxoimidazolidin-1-yl)-N-hydroxy-3-methylbutyramide]",–,–,–,5,–
"Cc1cc(COc2ccc(CN3CCN(C(C(=O)NO)C(C)C)C3=O)cc2)c2ccccc2n1 (stereo not drawn) [Example 14, N-Hydroxy-3-methyl-2-{3-(4-(2-methylquinolin-4-ylmethoxy)benzyl)-2-oxoimidazolidin-1-yl}butyramide with TFA]",1.14,12.9,–,0.01,–
"COc1ccc(CC2CN(Cc3ccccc3)C(=O)N2C(C(=O)NO)C(C)C)cc1 (stereo not drawn) [Example 15, 2-(3-Benzyl-5-(4-methoxybenzyl)-2-oxoimidazolidin-1-yl)-N-hydroxy-3-methylbutyramide]",17,–,0.4,8,–
"COc1ccc(CC2CN(Cc3ccc(OCc4ccccc4)cc3)C(=O)N2C(C(=O)NO)C(C)C)cc1 (stereo not drawn) [Example 16, 2-(3-(4-Benzyloxybenzyl)-5-(4-methoxybenzyl)-2-oxoimidazolidin-1-yl)-N-hydroxy-3-methylbutyramide]",1.39,25.5,0.42,3.08,–
"COc1ccc(CC2CN(C)C(=O)N2C(C(=O)NO)C(C)C)cc1 (stereo not drawn) [Example 17, N-Hydroxy-2-(5-(4-methoxybenzyl)-3-methyl-2-oxoimidazolidin-1-yl)-3-methylbutyramide]",–,–,3.17,–,–
"CC(C)C(C(=O)NO)N1C(=O)N(Cc2ccc(OCc3ccccc3)cc2)CC1Cc1ccc2c(c1)OCO2 (stereo not drawn) [Example 18, 2-(5-Benzo(1,3)dioxol-5-ylmethyl-3-(4-benzyloxybenzyl)-2-oxoimidazolidin-1-yl)-N-hydroxy-3-methylbutyramide]",3.16,–,0.6,1.9,–
"CC(C)C(C(=O)NO)N1C(=O)N(Cc2ccccc2)CC1Cc1ccc2c(c1)OCO2 (stereo not drawn) [Example 19, 2-(5-Benzo(1,3)dioxol-5-ylmethyl-3-benzyl-2-oxoimidazolidin-1-yl)-N-hydroxy-3-methylbutyramide]",–,–,0.34,9.29,–
"COc1ccc(CC2CN(Cc3ccc(OCc4ccccc4)cc3)S(=O)(=O)N2C(C(=O)NO)C(C)C)cc1 (stereo not drawn) [Example 20, 2-(5-(4-Benzyloxybenzyl)-3-(4-methoxybenzyl)-1,1-dioxo-(1,2,5)thiadiazolidin-2-yl)-N-hydroxy-3-methylbutyramide]",–,–,3.58,–,–
